Measured values reported in US6974867B2, “Compositions and methods for treating neoplastic disease using chemotherapy and radiation sensitizers” (Chiron Corporation, priority 2000, dated 2005).

Tests used:
KIAA0175 [1] = assay: KIAA0175 protein levels after exposure of cells to hydroxyurea (Western); settings: recombinant HA-fusion protein or endogenously expressed
KIAA0175 mRNA = assay: Northern analysis of KIAA0175 mRNA after anti-sense oligonucleotide transfection; assay type: cell-based, human; settings: HT1080 cells; for level of KIAA0175 mRNA expression: 100 nM oligonucleotide, Northern analysis; for KIAA0175 mRNA expression over time: 24 to 72 hours after oligonucleotide administration
Method: HT 1080 cells express endogenous KIAA0175. These cells were transfected with either the FITC (negative control) or AKT1 (positive control) oligonucleotides), 1182, or 545 oligonucleotides. Briefly, 100 nM of the respective anti-sense oligonucleotide was mixed with lipitoid 1 transfection reagent (Huang et al., Chemistry and Biology 5(6):346-354 (1998)) in a 1:3 volume to volume ratio in OPTI-MEM (GibcoBRL). The mixture was added to the HT1080 cells in complete medium (EMEM, 10% heat inactivated fetal bovine serum (FBS), 2 mM L-Glutamine, 100 U/ml Penicillin, and […] Streptomycin) and the cells were incubated at 37° C. for ^˜4-5 hours in the presence of the anti-sense oligonucleotides before changing to fresh complete medium. Total RNA was extracted at day 1 or 24, 48, or 72 hours following transfection and mRNA levels of KIAA0175 were detected by Northern analysis. 20 μg of total RNA were subjected to electrophoresis on a denaturing agarose gel. RNA was transferred to nitrocellulose and KIAA0175 mRNA was detected by probing with a ^32P-labeled, 0.7 kb KIAA0175 cDNA fragment. To control for equal loading of individual lanes, the blot was stripped of the KIAA0175 probe and re-probed with a ^32P-labeled G3PDH cDNA probe obtained from Clontech.

HCT116 cells = assay: Colony (Crystal Violet) viability assay, sensitization to γ-irradiation and hydroxyurea; assay type: cell-based; settings: 11 days of culture, compared to RC-treated cells
Method: γ-irradiation treatment was performed as follows: On day one, HCT116 cells were transfected with either the KIAA0175 anti-sense molecule No. 545 (545) or with the 545 reverse control molecule (RC) and plated onto tissue-culture plates. On day three, one plate each of 545 and RC transfected cells were treated with γ-irradiation (2, 4 or 8 Gy) and cultured an additional 2 hours. The γ-irradiation treated cells as well as untreated control HCT116 cells were trypsinized, counted and seeded in triplicate onto 6-well tissue culture plates to a density of 1000 cells per well. After 11 days of culture, the cells were assayed for viability by staining with Crystal Violet. Total numbers of cell colonies were then counted.
Hydroxyurea treatment was performed as follows: On day one, HCT116 cells were transfected with either the KIAA0175 anti-sense molecule No. 545 (545) or with the 545 reverse control molecule (RC) and plated onto tissue-culture plates. The following day (day two), one plate each of 545 and RC transfected cells were treated with hydroxyurea (1 mM final concentration) and cultured an additional 24 hours. On day three, the hydroxyurea treated cells as well as untreated control HCT116 cells were trypsinized, counted and seeded in triplicate onto 6-well tissue culture plates to a density of 1000 cells per well. […] Total numbers of cell colonies were then counted.

[2] = test system: Normal Breast Epithelial Cell Line 184B5; assay: LDH cytotoxicity assay, normal breast epithelial cell line; assay type: cell-based; settings: for effect on cell death (LDH): 184B5 normal breast epithelial cell line
Method: (§1) The effect of KIAA0175 anti-sense molecules on cell sensitivity to chemotherapeutic drugs was tested on several cell lines using the lactate dehydrogenase (LDH) cytotoxicity assay essentially as follows:
(§2) Day 1: Cells were seeded in 4 separate 96 well plates, typically 5000 cells/well and incubated at 37° C. and 5% CO2.
(§3) Day 2: Cells were transfected with the KIA175-1182 and KIA175-545 anti-sense oligonucleotides (SEQ ID NOs:5 and 1, respectively) as well as the reverse complement controls, RC1182 and RC545 (SEQ ID NOs:6 and 2, respectively) essentially as described in Example 4, with and without drug. One plate (day 0) was left untransfected as a seeding control.
(§4) The transfection was carried out using a lipid vehicle for delivery as described in WO 01/16306, hereby incorporated in its entirety. Briefly, the transfection used agents known as “lipitoids” and “cholesteroids”, described, for example, in PCT publications WO 01/16306, WO 98/06437 and WO 99/08711, based on U.S. Ser. No. 60/023,867, 60/054,743, and 09/132,808, which are also hereby incorporated by reference. These lipid-cationic peptoid conjugates are shown in these references to be effective reagents for the delivery of plasmid DNA to cells in vitro. Any of the carriers described in the above-referenced applications are suitable for use in transfection of the oligonucleotides described herein.
(§5) Depending on the cell type, different lipid vehicles were used for different lengths of time for transfection. […] The transfection was carried out in complete medium and the final anti-sense oligonucleotide concentration was 300 nM per well. In the wells with drug, the drug was added to the culture at the beginning of the transfection.
(§6) Starting on Day 3: Cells were recovered, 1 plate/day and release of LDH into the supernatant was measured using a kit from Roche according to manufacturer's instructions (Roche Diagnostics, Basel, Switzerland) (data labeled as day 1, 2, 3).
(§7) For each sample, the data are expressed as a ratio of the level of LDH in wells containing cells transfected with anti-sense (AS) over the level of LDH in wells containing cells transfected with the reverse complement controls (RC) (ie:AS/RC). Thus, cells that become sensitized to drug will die and release LDH into the supernatant. An increase in the ratio signifies increased cell death and thus, higher levels of LDH in the media. A ratio higher than 1.5 signifies an effect of the anti-sense over the reverse complement control.

[3] = test system: Breast Cancer Cell Line MDA-MB-231; assay: LDH cytotoxicity assay, breast cancer cell line; assay type: cell-based
Method: as §1, §2, §3, §4, §5, §6, §7

p53 [4] = assay: Western analysis of p53 protein level after anti-sense transfection, HT1080 cells; assay type: cell-based, human
Source text: (§8) In separate experiments, either HT1080 or HCT116 cells expressing endogenous KIAA0175 and p53 were transfected with either FITC, KIAA0175 anti-sense oligonucleotides (i.e. 545 or 1182), or the corresponding reverse control oligonucleotides (RC or RC545). Total cell lysates were fractionated by SDS-polyacrylamide gel electrophoresis and transferred to nitrocellulose membranes. Specific proteins were detected by Western analysis using antibodies to either KIAA0175 (rabbit polyclonal antisera), p53, Erk2, or p21 antibodies as indicated. Antibodies against p53, p21 and Erk2 were obtained from Santa Cruz Biotechnology, Inc. (Santa Cruz, Calif.).

KIAA0175 [5] = assay: Western analysis of KIAA0175 protein level after anti-sense transfection, HT1080 cells; assay type: cell-based, human
Source text: as §8

p53 [6] = assay: Western analysis of p53 after γ-irradiation of transfected HT1080 cells; assay type: cell-based, human; settings: 10 Gy γ-irradiation 24 hours after transfection
Method: (§9) HT1080 cells expressing endogenous KIAA0175 were transfected with the KIAA0175 anti-sense oligonucleotide (1182) and the corresponding reverse control oligonucleotide (RC1182). After culture for 24-hours, the transfected cells were treated with 10 Gy of γ-irradiation. At various times after irradiation, cells were harvested and lysates prepared and subjected to SDS-PAGE. p53, Erk2, and p21 proteins were detected by Western analysis.

p21 = assay: Western analysis of p21 after γ-irradiation of transfected HT1080 cells; assay type: cell-based, human; settings: 10 Gy γ-irradiation 24 hours after transfection
Method: as §9

HT1080 cells = assay: Cell cycle arrest upon γ-irradiation in transfected HT1080 cells; assay type: cell-based, human
Method: Because both p53 and p21 are involved in the G1 to S phase cell cycle transition, the following experiments were performed in order to assess the effect of KIAA0175 anti-sense molecules on cell cycle regulation.
Table 1 discloses the percentage of HT1080 cells in each stage of the cell cycle at various times following exposure to γ-irradiation. By 24 hours, cells were arrested in both the G1 and G2 phases as evidenced by the elevated percentage of cells in G0/G1 and G2/M phases as compared to the diminished percentage of cells in the S phase.
Table 2 discloses the effect of KIAA0175 anti-sense molecules on γ-irradiation induced cell-cycle arrest. In cells transfected with anti-sense molecules, there was a reduction in the accumulation of cells in the G1 phase and a minimized reduction in the number of cells in the S phase as compared to cells transfected with a “reverse-control” anti-sense molecule as control.

[7] = 184B5, Day 0 (untransfected seeding control plate), 300 nM oligonucleotide
[8] = 184B5, Day 1, 300 nM oligonucleotide, ratio higher than 1.5 signifies an effect
[9] = 184B5, Day 2, 300 nM oligonucleotide, ratio higher than 1.5 signifies an effect
[10] = 184B5, Day 3, 300 nM oligonucleotide, ratio higher than 1.5 signifies an effect
[11] = MDA-MB-231, Day 0 (untransfected seeding control plate), 300 nM oligonucleotide
[12] = MDA-MB-231, Day 1, 300 nM oligonucleotide, ratio higher than 1.5 signifies an effect
[13] = MDA-MB-231, Day 2, 300 nM oligonucleotide, ratio higher than 1.5 signifies an effect
[14] = MDA-MB-231, Day 3, 300 nM oligonucleotide, ratio higher than 1.5 signifies an effect
[15] = MDA-MB-231 metastatic breast cancer cells

Compound: NC(=O)NO [hydroxyurea]
- KIAA0175 protein levels (KIAA0175 [1]): caused an increase in KIAA0175 protein levels

Compound: AKT: positive control oligonucleotide 5′-CCATAGTGAGGTTGCATCTGGTGCC-3′ (listed as DNA, chemistry not given here) [reference compound]
- level of KIAA0175 mRNA expression (KIAA0175 mRNA): ineffective in reducing KIAA0175 mRNA expression

Compound: FITC: negative control oligonucleotide 5′-TCTGCTGCTGTCGACAACGAGTGTC-3′ (FITC label, position not given here) [reference compound]
- level of KIAA0175 mRNA expression (KIAA0175 mRNA): ineffective in reducing KIAA0175 mRNA expression
- KIAA0175 mRNA expression over time (KIAA0175 mRNA): no effect

Compound: KIA175-545: KIAA0175 anti-sense oligonucleotide 5′-GAGGTCCCTGTGAGCATAGCCCTGG-3′ (listed as DNA, chemistry not given here)
- level of KIAA0175 mRNA expression (KIAA0175 mRNA): effective in reducing the level of KIAA0175 mRNA expression
- KIAA0175 mRNA expression over time (KIAA0175 mRNA): increased gradually
- sensitivity to hydroxyurea (number of viable colonies) (HCT116 cells; hydroxyurea 1 mM 24 hours): increased the sensitivity of HCT116 cells to hydroxyurea
- sensitivity to γ-irradiation (number of viable colonies) (HCT116 cells; γ-irradiation 2, 4 or 8 Gy): increased the sensitivity of HCT116 cells to γ-irradiation
- LDH ratio AS/RC [2, 7]: 0.0000
- LDH ratio AS/RC [2, 8]: 1.1152
- LDH ratio AS/RC [2, 9]: 1.1258
- LDH ratio AS/RC [2, 10]: 1.2934
- effect on cell death (LDH) [2]: neither KIA175-1182 nor KIA175-545 has an effect
- LDH ratio AS/RC [3, 11]: 0.84
- LDH ratio AS/RC [3, 12]: 1.05
- LDH ratio AS/RC [3, 13]: 1.37
- LDH ratio AS/RC [3, 14]: 1.62
- sensitization to the effects of Campthesin (CPT) [3, 15]: sensitizes
- sensitization to the effects of Cisplatin [3, 15]: sensitizes
- sensitization to the effects of Doxorubicin (Doxo) [3, 15]: did not appear to sensitize

Compound: KIA175-736: KIAA0175 anti-sense oligonucleotide 5′-TGCCCATGCTCCAAACATCTGCCTC-3′ (listed as DNA, chemistry not given here)
- level of KIAA0175 mRNA expression (KIAA0175 mRNA): effective in reducing the level of KIAA0175 mRNA expression

Compound: KIA175-1182: KIAA0175 anti-sense oligonucleotide 5′-GGGTAGCACTGGCTTGTCCACAGGA-3′ (listed as DNA, chemistry not given here)
- level of KIAA0175 mRNA expression (KIAA0175 mRNA): effective in reducing the level of KIAA0175 mRNA expression
- KIAA0175 mRNA expression over time (KIAA0175 mRNA): increased gradually
- time of maximal anti-sense activity, p53 protein (p53 [4]): 48 h
- time of maximal anti-sense activity, KIAA0175 protein (KIAA0175 [5]): 48 h
- γ-irradiation induced increase in p53 protein level (p53 [6]): blocked the γ-irradiation induced increase in p53 protein level
- p21 protein levels after γ-irradiation (p21): reduction of p21 protein levels
- percentage of cells in G0-G1 (HT1080 cells; + γ-irradiation): 39.3%
- percentage of cells in G2-M (HT1080 cells; + γ-irradiation): 42.17%
- percentage of cells in S (HT1080 cells; + γ-irradiation): 18.6%
- percentage of cells in G0-G1 (HT1080 cells; − γ-irradiation): 47.4%
- percentage of cells in G2-M (HT1080 cells; − γ-irradiation): 26.8%
- percentage of cells in S (HT1080 cells; − γ-irradiation): 25.7%
- LDH ratio AS/RC [2, 7]: 0.0000
- LDH ratio AS/RC [2, 8]: 1.0223
- LDH ratio AS/RC [2, 9]: 0.9065
- LDH ratio AS/RC [2, 10]: 1.0663
- effect on cell death (LDH) [2]: neither KIA175-1182 nor KIA175-545 has an effect
- LDH ratio AS/RC [3, 11]: 0.76
- LDH ratio AS/RC [3, 12]: 2.04
- LDH ratio AS/RC [3, 13]: 1.67
- LDH ratio AS/RC [3, 14]: 1.52

Compound: RC736: reverse control oligonucleotide 5′-CTCCGTCTACAAACCTCGTACCCGT-3′ (listed as DNA, chemistry not given here) [reference compound]
- level of KIAA0175 mRNA expression (KIAA0175 mRNA): ineffective in reducing KIAA0175 mRNA expression

Compound: RC1182: reverse control oligonucleotide 5′-AGGACACCTGTTCGGTCACGATGGG-3′ (listed as DNA, chemistry not given here) [reference compound]
- level of KIAA0175 mRNA expression (KIAA0175 mRNA): ineffective in reducing KIAA0175 mRNA expression
- γ-irradiation induced increase in p53 protein level (p53 [6]): increase in p53 protein level observed
- percentage of cells in G0-G1 (HT1080 cells; + γ-irradiation): 52.5%
- percentage of cells in G2-M (HT1080 cells; + γ-irradiation): 32.6%
- percentage of cells in S (HT1080 cells; + γ-irradiation): 14.9%
- percentage of cells in G0-G1 (HT1080 cells; − γ-irradiation): 47.6%
- percentage of cells in G2-M (HT1080 cells; − γ-irradiation): 19.4%
- percentage of cells in S (HT1080 cells; − γ-irradiation): 33%
